Assay: Half maximal inhibition of binding of [125I]CCK-8 to Cholecystokinin type B receptor in guinea pig cerebral cortex.

Row | SMILES | IC50 [nM]
1 | O=C(Cc1ccc(C(F)(F)F)cc1C(F)(F)F)N[C@@H]1N=C(c2ccccc2)c2ccccc2N(CC(F)(F)F)C1=O [2-(2,4-Bis-trifluoromethyl-phenyl)-N-[(R)-2-oxo-5-phenyl-1-(2,2,2-trifluoro-ethyl)-2,3-dihydro-1H-benzo[e][1,4]diazepin-3-yl]-acetamide] | > 1000
2 | O=C(Cc1ccc(C(F)(F)F)cc1C(F)(F)F)N[C@H]1N=C(c2ccccc2)c2ccccc2N(CC(F)(F)F)C1=O [2-(2,4-Bis-trifluoromethyl-phenyl)-N-[(S)-2-oxo-5-phenyl-1-(2,2,2-trifluoro-ethyl)-2,3-dihydro-1H-benzo[e][1,4]diazepin-3-yl]-acetamide] | > 1000
3 | CC(C)N1C(=O)[C@H](NC(=O)Cc2cc(Cl)cc(Cl)c2)N=C(c2ccccc2)c2ccccc21 [2-(3,5-Dichloro-phenyl)-N-((R)-1-isopropyl-2-oxo-5-phenyl-2,3-dihydro-1H-benzo[e][1,4]diazepin-3-yl)-acetamide] | > 1000
4 | CN1C(=O)[C@H](NC(=O)C(N)Cc2ccccc2)N=C(c2ccccc2)c2ccccc21 (stereo partly drawn) [2-Amino-N-((R)-1-methyl-2-oxo-5-phenyl-2,3-dihydro-1H-benzo[e][1,4]diazepin-3-yl)-3-phenyl-propionamide] | > 1000
5 | CN1C(=O)[C@H](NC(=O)CCc2ccc(Cl)cc2Cl)N=C(c2ccccc2)c2ccccc21 [3-(2,4-Dichloro-phenyl)-N-((R)-1-methyl-2-oxo-5-phenyl-2,3-dihydro-1H-benzo[e][1,4]diazepin-3-yl)-propionamide] | > 1000
6 | CN(C)CCN1C(=O)C(NC(=O)CCc2ccc(Cl)cc2Cl)N=C(c2ccccc2)c2ccccc21 (centres undefined) [3-(2,4-Dichloro-phenyl)-N-[1-(2-dimethylamino-ethyl)-2-oxo-5-phenyl-2,3-dihydro-1H-benzo[e][1,4]diazepin-3-yl]-propionamide] | > 1000
7 | CC(=O)Nc1ccc(CCC(=O)N[C@@H]2N=C(c3ccccc3)c3ccccc3N(C)C2=O)cc1 [3-(4-Acetylamino-phenyl)-N-((R)-1-methyl-2-oxo-5-phenyl-2,3-dihydro-1H-benzo[e][1,4]diazepin-3-yl)-propionamide] | > 1000
8 | CN1C(=O)[C@H](NC(=O)CCc2ccc(N)cc2)N=C(c2ccccc2)c2ccccc21 [3-(4-Amino-phenyl)-N-((R)-1-methyl-2-oxo-5-phenyl-2,3-dihydro-1H-benzo[e][1,4]diazepin-3-yl)-propionamide] | > 1000
9 | CC(C)N1C(=O)[C@H](NC(=O)CCC2CCCCC2)N=C(c2ccccc2)c2ccccc21 [3-Cyclohexyl-N-((R)-1-isopropyl-2-oxo-5-phenyl-2,3-dihydro-1H-benzo[e][1,4]diazepin-3-yl)-propionamide] | > 1000
10 | CN1C(=O)[C@H](NC(=O)CCC2CCCCC2)N=C(c2ccccc2)c2ccccc21 [3-Cyclohexyl-N-((R)-1-methyl-2-oxo-5-phenyl-2,3-dihydro-1H-benzo[e][1,4]diazepin-3-yl)-propionamide] | > 1000
11 | CN1C(=O)[C@H](NC(=O)/C=C/c2ccc(Cl)cc2Cl)N=C(c2ccccc2)c2ccccc21 [(E)-3-(2,4-Dichloro-phenyl)-N-((R)-1-methyl-2-oxo-5-phenyl-2,3-dihydro-1H-benzo[e][1,4]diazepin-3-yl)-acrylamide] | > 1000
12 | CN1C(=O)[C@H](NC(=O)CCc2ccccc2)N=C(c2ccccc2)c2ccccc21 [(R)-N-(1-methyl-2-oxo-5-phenyl-2,3-dihydro-1H-benzo[e][1,4]diazepin-3-yl)-3-phenylpropanamide] | > 1000
13 | CN1C(=O)[C@H](NC(=O)Cc2ccccc2)N=C(c2ccccc2)c2ccccc21 [N-((R)-1-Methyl-2-oxo-5-phenyl-2,3-dihydro-1H-benzo[e][1,4]diazepin-3-yl)-2-phenyl-acetamide] | > 1000
14 | CN1C(=O)[C@H](NC(=O)c2ccccc2)N=C(c2ccccc2)c2ccccc21 [N-((R)-1-Methyl-2-oxo-5-phenyl-2,3-dihydro-1H-benzo[e][1,4]diazepin-3-yl)-benzamide] | > 1000
